Experimental data from ChEMBL document CHEMBL1201862, “PubChem BioAssay data set” (2004).
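Each compound was tested at five concentrations against cells in 96-well plates for 48 hours. GI50: concentration for 50% inhibition of growth.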 Activity calls are given as the source filed them. No stated cut-off is given here; in the data, active = GI50 up to about 1.1 µM and inactive = higher.

Assays:
Experiment in all cases: NCI tumour cell line growth inhibition, 48 h
ACHN = tested on: ACHN
HCC 2998 = tested on: HCC 2998
HL-60 = tested on: HL-60
HOP-62 = tested on: HOP-62
HT-29 = tested on: HT-29
LOX IMVI = tested on: LOX IMVI
M14 = tested on: M14
MDA-N = tested on: MDA-N
Malme-3M = tested on: Malme-3M
NCI-H226 = tested on: NCI-H226
PC-3 = tested on: PC-3
SF-268 = tested on: SF-268
SF-539 = tested on: SF-539
SK-MEL-28 = tested on: SK-MEL-28
SK-MEL-5 = tested on: SK-MEL-5
SK-OV-3 = tested on: SK-OV-3
SNB-19 = tested on: SNB-19
UACC-257 = tested on: UACC-257
UACC-62 = tested on: UACC-62
A498 = tested on: A498

Measured: GI50

O=C(OCCN=c1c2ccccc2ccc2ccccc12)c1ccccc1
inactive: ACHN 97.1 µM | HCC 2998 72.8 µM | HL-60 27.3 µM | HOP-62 64.6 µM | HT-29 64 µM | LOX IMVI 72.1 µM | M14 > 100 µM | MDA-N > 100 µM | Malme-3M > 100 µM | NCI-H226 > 100 µM | PC-3 67.3 µM | SF-268 > 100 µM | SF-539 50.1 µM | SK-MEL-28 > 100 µM | SK-MEL-5 45 µM | SK-OV-3 > 100 µM | SNB-19 40.5 µM | UACC-257 > 100 µM | UACC-62 75 µM

CC1(C)CN=C(Nc2cccc(C(F)(F)F)c2)S1
inactive: ACHN > 100 µM | HCC 2998 > 100 µM | HL-60 59.3 µM | HOP-62 > 100 µM | HT-29 > 100 µM | LOX IMVI > 100 µM | M14 > 100 µM | MDA-N > 100 µM | Malme-3M > 100 µM | NCI-H226 > 100 µM | PC-3 > 100 µM | SF-268 > 100 µM | SF-539 > 100 µM | SK-MEL-28 > 100 µM | SK-MEL-5 > 100 µM | SK-OV-3 > 100 µM | SNB-19 > 100 µM | UACC-257 > 100 µM | UACC-62 > 100 µM

CCOC(=O)C(NC(=O)c1ccccc1)(Nc1cc(C)on1)C(F)(F)F (configuration not stated)
inactive: ACHN > 100 µM | HCC 2998 > 100 µM | HL-60 > 100 µM | HOP-62 > 100 µM | HT-29 > 100 µM | LOX IMVI > 100 µM | M14 > 100 µM | MDA-N > 100 µM | Malme-3M > 100 µM | NCI-H226 > 100 µM | PC-3 > 100 µM | SF-268 > 100 µM | SF-539 > 100 µM | SK-MEL-28 > 100 µM | SK-MEL-5 > 100 µM | SK-OV-3 > 100 µM | SNB-19 > 100 µM | UACC-257 > 100 µM | UACC-62 > 100 µM

C(=C\c1ccccc1)/C=N/c1ccc2c(c1)Cc1ccccc1-2
inactive: A498 > 100 µM | ACHN > 100 µM | HOP-62 > 100 µM | HT-29 > 100 µM | LOX IMVI 23.9 µM | M14 62.2 µM | MDA-N 44 µM | Malme-3M > 100 µM | NCI-H226 > 100 µM | PC-3 69 µM | SF-268 38.9 µM | SK-MEL-28 97.3 µM | SK-MEL-5 98.9 µM | SNB-19 61.4 µM | UACC-62 > 100 µM
